From patent US20240358693A1, “METHODS OF TREATING PAIN” (Aisa Pharma, Inc., priority 2023, published 2024)

System: participants with SSc-RP
Experiment: Scleroderma Health Assessment Questionnaire (SHAQ): disability indices and visual analog scales
Assay type: in vivo, human
Summary of the method: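 Participants with SSc-RP completed the SHAQ at screening and each in-clinic visit. Standard and alternative disability indices (eight categories, 0–3; standard adjusts for aids/assistance) plus Raynaud's VAS on interference over the past 7 days. Reported as absolute change from baseline to end of each dosing period.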

[1] = Baseline, Tadalafil 5 mg (N = 5), Patients with Diagnosis of SSc, PP Population Part A
[2] = Day 12, Modified ITT, Part A, dose Cilnidipine 10 mg, Tadalafil 5 mg, or 10 mg + 5 mg
[3] = Day 12, Tadalafil 5 mg (N = 5), Patients with Diagnosis of SSc, PP Population Part A
[4] = Day 12, mITT Part A, SSc patients, cilnidipine 10 mg and/or tadalafil 5 mg as in the arm
[5] = Day 12, mITT Part A, SSc patients, cilnidipine 10 mg and/or tadalafil 5 mg as in the arm, subject 01-110 score excluded
[6] = In-Clinic Visit (Day 12), Tadalafil 5 mg (N = 5), Patients with Diagnosis of SSc, PP Population Part A
[7] = Modified ITT, Part A, dose Cilnidipine 10 mg, Tadalafil 5 mg, or 10 mg + 5 mg

## CN1CC(=O)N2[C@H](c3ccc4c(c3)OCO4)c3[nH]c4ccccc4c3C[C@@H]2C1=O [Tadalafil, tadalafil]
[1]
  SHAQ Alternative Disability Index, Mean: 0.450
  SHAQ Alternative Disability Index, Median: 0.375
  SHAQ Standard Disability Index, Mean: 0.550
  SHAQ Standard Disability Index, Median: 0.500
[2]
  SHAQ Alternative Disability Index, Change from Baseline, Mean: −0.094
  SHAQ Alternative Disability Index, Change from Baseline, Median: −0.125
  SHAQ Alternative Disability Index, Percent Change from Baseline, Mean: −43.70%
  SHAQ Alternative Disability Index, Percent Change from Baseline, Median: −20.00%
  SHAQ Finger Ulcers, Change from Baseline, Mean: 0.250
  SHAQ Finger Ulcers, Change from Baseline, Median: 0.000
  SHAQ Finger Ulcers, Percent Change from Baseline, Mean: 6.10%
  SHAQ Finger Ulcers, Percent Change from Baseline, Median: 6.10%
  SHAQ Standard Disability Index, Change from Baseline, Mean: −0.063
  SHAQ Standard Disability Index, Change from Baseline, Median: −0.063
  SHAQ Standard Disability Index, Percent Change from Baseline, Mean: −9.26%
  SHAQ Standard Disability Index, Percent Change from Baseline, Median: −11.11%
  SHAQ Visual Analog Scale-Breathing Problems, Change from Baseline, Mean: 0.500
  SHAQ Visual Analog Scale-Breathing Problems, Change from Baseline, Median: 1.050
  SHAQ Visual Analog Scale-Breathing Problems, Percent Change from Baseline, Mean: −2.66%
  SHAQ Visual Analog Scale-Breathing Problems, Percent Change from Baseline, Median: 29.58%
  SHAQ Visual Analog Scale-Intestinal Problems, Change from Baseline, Mean: −0.125
  SHAQ Visual Analog Scale-Intestinal Problems, Change from Baseline, Median: 0.000
  SHAQ Visual Analog Scale-Intestinal Problems, Percent Change from Baseline, Mean: −6.92%
  SHAQ Visual Analog Scale-Intestinal Problems, Percent Change from Baseline, Median: 0.00%
  SHAQ Visual Analog Scale-Pain, Change from Baseline, Mean: 1.000
  SHAQ Visual Analog Scale-Pain, Change from Baseline, Median: 0.800
  SHAQ Visual Analog Scale-Pain, Percent Change from Baseline, Mean: 31.35%
  SHAQ Visual Analog Scale-Pain, Percent Change from Baseline, Median: 10.81%
  SHAQ Visual Analog Scale-Raynaud's, Change from Baseline, Mean: −0.825
  SHAQ Visual Analog Scale-Raynaud's, Change from Baseline, Median: −0.500
  SHAQ Visual Analog Scale-Raynaud's, Percent Change from Baseline, Mean: −19.71%
  SHAQ Visual Analog Scale-Raynaud's, Percent Change from Baseline, Median: −20.67%
[3]
  SHAQ Alternative Disability Index, Change from Baseline, Mean: −0.094
  SHAQ Alternative Disability Index, Change from Baseline, Median: −0.125
  SHAQ Alternative Disability Index, Percent Change from Baseline, Mean: −43.70%
  SHAQ Alternative Disability Index, Percent Change from Baseline, Median: −20.00%
  SHAQ Standard Disability Index, Change from Baseline, Mean: −0.063
  SHAQ Standard Disability Index, Change from Baseline, Median: −0.063
  SHAQ Standard Disability Index, Percent Change from Baseline, Mean: −9.26%
  SHAQ Standard Disability Index, Percent Change from Baseline, Median: −11.11%
[4]
  SHAQ Alternative Disability Index, Change from Baseline, Mean: −0.094
  SHAQ Alternative Disability Index, Change from Baseline, Median: −0.125
  SHAQ Alternative Disability Index, In-Clinic Visit (Day 12), Mean: 0.375
  SHAQ Alternative Disability Index, In-Clinic Visit (Day 12), Median: 0.250
  SHAQ Alternative Disability Index, Percent Change from Baseline, Mean: −43.70%
  SHAQ Alternative Disability Index, Percent Change from Baseline, Median: −20.00%
  SHAQ Visual Analogue Scale - Finger Ulcers, Change from Baseline, Mean: 0.250
  SHAQ Visual Analogue Scale - Finger Ulcers, Change from Baseline, Median: 0.000
  SHAQ Visual Analogue Scale - Finger Ulcers, In-Clinic Visit (Day 12), Mean: 2.325
  SHAQ Visual Analogue Scale - Finger Ulcers, In-Clinic Visit (Day 12), Median: 0.050
  SHAQ Visual Analogue Scale - Finger Ulcers, Percent Change from Baseline, Mean: 6.10%
  SHAQ Visual Analogue Scale - Finger Ulcers, Percent Change from Baseline, Median: 6.10%
  SHAQ Visual Analogue Scale - Intestinal Problems, Change from Baseline, Mean: −0.125
  SHAQ Visual Analogue Scale - Intestinal Problems, Change from Baseline, Median: 0.000
  SHAQ Visual Analogue Scale - Intestinal Problems, In-Clinic Visit (Day 12), Mean: 3.025
  SHAQ Visual Analogue Scale - Intestinal Problems, In-Clinic Visit (Day 12), Median: 1.450
  SHAQ Visual Analogue Scale - Intestinal Problems, Percent Change from Baseline, Mean: −6.92%
  SHAQ Visual Analogue Scale - Intestinal Problems, Percent Change from Baseline, Median: 0.00%
  SHAQ Visual Analogue Scale - Overall Disease Severity, Change from Baseline, Mean: 0.625
  SHAQ Visual Analogue Scale - Overall Disease Severity, Change from Baseline, Median: 0.700
  SHAQ Visual Analogue Scale - Overall Disease Severity, In-Clinic Visit (Day 12), Mean: 5.600
  SHAQ Visual Analogue Scale - Overall Disease Severity, In-Clinic Visit (Day 12), Median: 6.550
  SHAQ Visual Analogue Scale - Overall Disease Severity, Percent Change from Baseline, Mean: 32.49%
  SHAQ Visual Analogue Scale - Overall Disease Severity, Percent Change from Baseline, Median: 26.79%
  SHAQ Visual Analogue Scale - Pain, Change from Baseline, Mean: 1.000
  SHAQ Visual Analogue Scale - Pain, Change from Baseline, Median: 0.800
  SHAQ Visual Analogue Scale - Pain, In-Clinic Visit (Day 12), Mean: 5.300
  SHAQ Visual Analogue Scale - Pain, In-Clinic Visit (Day 12), Median: 5.850
  SHAQ Visual Analogue Scale - Pain, Percent Change from Baseline, Mean: 31.35%
  SHAQ Visual Analogue Scale - Pain, Percent Change from Baseline, Median: 10.81%
  SHAQ Visual Analogue Scale - Raynaud's, Change from Baseline, Mean: −0.825
  SHAQ Visual Analogue Scale - Raynaud's, Change from Baseline, Median: −0.500
  SHAQ Visual Analogue Scale - Raynaud's, In-Clinic Visit (Day 12), Mean: 4.950
  SHAQ Visual Analogue Scale - Raynaud's, In-Clinic Visit (Day 12), Median: 5.200
  SHAQ Visual Analogue Scale - Raynaud's, Percent Change from Baseline, Mean: −19.71%
  SHAQ Visual Analogue Scale - Raynaud's, Percent Change from Baseline, Median: −20.67%
[5]
  SHAQ Visual Analogue Scale - Breathing Problems, Change from Baseline, Mean: 0.500
  SHAQ Visual Analogue Scale - Breathing Problems, Change from Baseline, Median: 1.050
  SHAQ Visual Analogue Scale - Breathing Problems, In-Clinic Visit (Day 12), Mean: 4.300
  SHAQ Visual Analogue Scale - Breathing Problems, In-Clinic Visit (Day 12), Median: 4.000
  SHAQ Visual Analogue Scale - Breathing Problems, Percent Change from Baseline, Mean: −2.66%
  SHAQ Visual Analogue Scale - Breathing Problems, Percent Change from Baseline, Median: 29.58%
[6]
  SHAQ Alternative Disability Index, Mean: 0.375
  SHAQ Alternative Disability Index, Median: 0.250
  SHAQ Standard Disability Index, Mean: 0.531
  SHAQ Standard Disability Index, Median: 0.563
[7]
  SHAQ Finger Ulcers, Baseline, Mean: 2.075
  SHAQ Finger Ulcers, Baseline, Median: 0.050
  SHAQ Finger Ulcers, In Clinic Visit (Day 12), Mean: 2.325
  SHAQ Finger Ulcers, In Clinic Visit (Day 12), Median: 0.050
  SHAQ Standard disability index, Baseline, Mean: 0.594
  SHAQ Standard disability index, Baseline, Median: 0.625
  SHAQ Standard disability index, In Clinic Visit (Day 12), Mean: 0.531
  SHAQ Standard disability index, In Clinic Visit (Day 12), Median: 0.563
  SHAQ Visual Analog Scale-Breathing Problems, Baseline, Mean: 3.800
  SHAQ Visual Analog Scale-Breathing Problems, Baseline, Median: 4.050
  SHAQ Visual Analog Scale-Breathing Problems, In Clinic Visit (Day 12), Mean: 4.300
  SHAQ Visual Analog Scale-Breathing Problems, In Clinic Visit (Day 12), Median: 4.000
  SHAQ Visual Analog Scale-Intestinal Problems, Baseline, Mean: 3.150
  SHAQ Visual Analog Scale-Intestinal Problems, Baseline, Median: 2.600
  SHAQ Visual Analog Scale-Intestinal Problems, In Clinic Visit (Day 12), Mean: 3.025
  SHAQ Visual Analog Scale-Intestinal Problems, In Clinic Visit (Day 12), Median: 1.450
  SHAQ Visual Analog Scale-Pain, Baseline, Mean: 5.967
  SHAQ Visual Analog Scale-Pain, Baseline, Median: 7.400
  SHAQ Visual Analog Scale-Pain, In Clinic Visit (Day 12), Mean: 5.300
  SHAQ Visual Analog Scale-Pain, In Clinic Visit (Day 12), Median: 5.850
  SHAQ Visual Analog Scale-Raynaud's, Baseline, Mean: 5.775
  SHAQ Visual Analog Scale-Raynaud's, Baseline, Median: 6.400
  SHAQ Visual Analog Scale-Raynaud's, In Clinic Visit (Day 12), Mean: 4.950
  SHAQ Visual Analog Scale-Raynaud's, In Clinic Visit (Day 12), Median: 5.200
  SHAQ alternative disability index, Baseline, Mean: 0.469
  SHAQ alternative disability index, Baseline, Median: 0.375
